According to ChEMBL document CHEMBL1201862, “PubChem BioAssay data set” (2004):
One block for each molecule: values may come before it. Calls of active or inactive are those of the source.

How the values were obtained:
[1] = molecular target: RNA-editing ligase 1, mitochondrial (Trypanosoma brucei brucei, UniProt P86926); experiment: TbREL1 ligase inhibitors, dose response, biochemical, fluorescence, Trypanosoma brucei (AID 1117295); type: functional
[2] = molecular target: Serine/threonine-protein kinase PLK1 (Homo sapiens, UniProt P53350); type: functional;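 further: PLK1 measured as one member of a kinome-wide profiling panel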
[3] = molecular target: MAP kinase-activated protein kinase 2 (Homo sapiens, UniProt P49137); type: functional;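 further: measured as one member of a kinome-wide kinase panel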
[4] = molecular target: Mitogen-activated protein kinase 9 (Homo sapiens, UniProt P45984); type: functional;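 further: value from a kinome panel profiling assay, MAPK9 panel entry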
Chain of Mitogen-activated protein kinase 9 (P45984 whole entry): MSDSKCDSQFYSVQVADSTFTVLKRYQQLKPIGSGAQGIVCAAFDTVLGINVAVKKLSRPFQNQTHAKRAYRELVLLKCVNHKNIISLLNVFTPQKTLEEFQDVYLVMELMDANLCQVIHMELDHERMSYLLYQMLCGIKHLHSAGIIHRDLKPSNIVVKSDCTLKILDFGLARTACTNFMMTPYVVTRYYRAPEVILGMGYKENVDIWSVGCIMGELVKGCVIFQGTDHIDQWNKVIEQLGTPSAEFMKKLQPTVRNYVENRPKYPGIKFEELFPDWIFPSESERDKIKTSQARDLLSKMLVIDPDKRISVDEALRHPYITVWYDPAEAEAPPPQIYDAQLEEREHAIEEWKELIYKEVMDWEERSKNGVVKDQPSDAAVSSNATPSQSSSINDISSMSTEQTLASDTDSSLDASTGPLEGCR

[5] = molecular target: 3-phosphoinositide-dependent protein kinase 1 (Homo sapiens, UniProt O15530); type: functional;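 further: value comes from the Navigating the Kinome panel, PDPK1 member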
[6] = molecular target: cAMP-dependent protein kinase catalytic subunit alpha (Homo sapiens, UniProt P17612); type: functional
[7] = molecular target: Inhibitor of nuclear factor kappa-B kinase subunit beta (Homo sapiens, UniProt O14920); type: functional
Chain of Inhibitor of nuclear factor kappa-B kinase subunit beta (O14920 whole entry): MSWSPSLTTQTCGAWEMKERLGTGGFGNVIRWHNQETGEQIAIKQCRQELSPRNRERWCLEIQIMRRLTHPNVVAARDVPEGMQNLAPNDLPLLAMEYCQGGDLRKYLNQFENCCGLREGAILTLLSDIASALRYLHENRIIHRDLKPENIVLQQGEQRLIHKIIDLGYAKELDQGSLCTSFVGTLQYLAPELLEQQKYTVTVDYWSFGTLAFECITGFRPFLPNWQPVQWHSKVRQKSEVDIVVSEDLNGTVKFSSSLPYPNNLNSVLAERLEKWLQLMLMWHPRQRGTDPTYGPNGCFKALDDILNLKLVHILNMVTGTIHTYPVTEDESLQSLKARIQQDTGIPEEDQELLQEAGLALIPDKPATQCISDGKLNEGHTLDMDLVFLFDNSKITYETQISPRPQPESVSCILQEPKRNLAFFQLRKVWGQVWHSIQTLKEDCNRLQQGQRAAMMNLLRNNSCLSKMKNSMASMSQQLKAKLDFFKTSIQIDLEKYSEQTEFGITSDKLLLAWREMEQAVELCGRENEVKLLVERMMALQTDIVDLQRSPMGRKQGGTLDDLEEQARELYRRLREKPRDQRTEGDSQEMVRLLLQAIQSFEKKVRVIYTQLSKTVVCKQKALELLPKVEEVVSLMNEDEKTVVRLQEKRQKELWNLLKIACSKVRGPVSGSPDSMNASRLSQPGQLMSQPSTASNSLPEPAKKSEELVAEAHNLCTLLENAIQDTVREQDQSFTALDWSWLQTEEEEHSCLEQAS

[8] = molecular target: Proto-oncogene tyrosine-protein kinase Src (Homo sapiens, UniProt P12931); type: functional;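 further: SRC entry within a kinome-wide kinase profiling panel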
Chain of Proto-oncogene tyrosine-protein kinase Src (P12931 2-536 limits assumed): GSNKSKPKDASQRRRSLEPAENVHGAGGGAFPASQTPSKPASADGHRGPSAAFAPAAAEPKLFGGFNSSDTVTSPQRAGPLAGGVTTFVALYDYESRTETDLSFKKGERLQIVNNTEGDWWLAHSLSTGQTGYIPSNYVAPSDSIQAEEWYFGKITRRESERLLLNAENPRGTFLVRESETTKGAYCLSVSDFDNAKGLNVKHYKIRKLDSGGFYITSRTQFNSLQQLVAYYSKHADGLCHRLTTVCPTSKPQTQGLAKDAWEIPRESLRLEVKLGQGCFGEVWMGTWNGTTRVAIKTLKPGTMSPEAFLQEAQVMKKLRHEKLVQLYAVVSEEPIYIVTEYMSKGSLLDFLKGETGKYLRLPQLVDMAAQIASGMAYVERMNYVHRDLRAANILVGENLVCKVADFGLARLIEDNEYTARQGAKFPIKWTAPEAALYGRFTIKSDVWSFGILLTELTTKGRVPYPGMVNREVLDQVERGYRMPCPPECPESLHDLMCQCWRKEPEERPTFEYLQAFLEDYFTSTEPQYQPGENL

[9] = molecular target: Calcium/calmodulin-dependent protein kinase type 1 (Homo sapiens, UniProt Q14012); type: functional
Chain of Calcium/calmodulin-dependent protein kinase type 1 (Q14012 whole entry): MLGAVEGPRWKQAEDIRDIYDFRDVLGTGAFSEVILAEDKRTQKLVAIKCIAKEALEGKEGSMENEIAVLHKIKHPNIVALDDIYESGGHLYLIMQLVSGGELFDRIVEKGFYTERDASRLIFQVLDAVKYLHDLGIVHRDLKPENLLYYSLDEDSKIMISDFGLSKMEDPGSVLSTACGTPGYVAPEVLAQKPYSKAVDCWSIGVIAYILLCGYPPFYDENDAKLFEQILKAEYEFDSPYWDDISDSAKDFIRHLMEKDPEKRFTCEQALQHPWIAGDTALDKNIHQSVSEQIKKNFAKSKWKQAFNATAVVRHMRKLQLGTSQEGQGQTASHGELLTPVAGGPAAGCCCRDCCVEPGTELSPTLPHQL

[10] = molecular target: Casein kinase II subunit alpha (Homo sapiens, UniProt P68400); type: functional
Chain of Casein kinase II subunit alpha (P68400 whole entry): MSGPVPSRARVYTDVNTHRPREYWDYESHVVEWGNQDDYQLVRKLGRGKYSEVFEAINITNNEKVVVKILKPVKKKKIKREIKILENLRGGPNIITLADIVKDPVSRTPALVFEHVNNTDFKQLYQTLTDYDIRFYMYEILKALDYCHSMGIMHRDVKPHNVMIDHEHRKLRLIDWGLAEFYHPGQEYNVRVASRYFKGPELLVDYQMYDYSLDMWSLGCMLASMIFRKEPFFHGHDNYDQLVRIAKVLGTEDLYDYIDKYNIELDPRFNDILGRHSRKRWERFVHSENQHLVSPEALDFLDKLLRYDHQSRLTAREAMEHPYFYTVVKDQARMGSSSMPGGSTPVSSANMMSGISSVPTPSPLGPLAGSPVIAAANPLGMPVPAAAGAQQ

[11] = molecular target: Tyrosine-protein kinase Lyn (Homo sapiens, UniProt P07948); type: functional;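 further: lyn as one member of a kinase panel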
Chain of Tyrosine-protein kinase Lyn (P07948 whole entry): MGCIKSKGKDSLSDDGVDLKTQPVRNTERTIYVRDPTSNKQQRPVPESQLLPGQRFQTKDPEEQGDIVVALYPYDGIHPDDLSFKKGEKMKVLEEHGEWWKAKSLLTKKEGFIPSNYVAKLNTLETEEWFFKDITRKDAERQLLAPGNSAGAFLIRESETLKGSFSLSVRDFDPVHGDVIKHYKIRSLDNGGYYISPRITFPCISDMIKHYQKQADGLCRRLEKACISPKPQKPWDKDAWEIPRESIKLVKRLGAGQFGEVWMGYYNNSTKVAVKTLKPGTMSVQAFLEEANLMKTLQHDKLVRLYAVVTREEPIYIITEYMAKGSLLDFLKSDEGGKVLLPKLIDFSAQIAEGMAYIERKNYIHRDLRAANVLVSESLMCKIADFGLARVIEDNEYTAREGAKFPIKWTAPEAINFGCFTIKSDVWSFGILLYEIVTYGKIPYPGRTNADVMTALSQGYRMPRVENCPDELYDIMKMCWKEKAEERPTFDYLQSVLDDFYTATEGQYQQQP

[12] = molecular target: Mitogen-activated protein kinase 8 (Homo sapiens, UniProt P45983); type: functional;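 further: value comes from one member of a kinome-wide kinase profiling panel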
Chain of Mitogen-activated protein kinase 8 (P45983 whole entry): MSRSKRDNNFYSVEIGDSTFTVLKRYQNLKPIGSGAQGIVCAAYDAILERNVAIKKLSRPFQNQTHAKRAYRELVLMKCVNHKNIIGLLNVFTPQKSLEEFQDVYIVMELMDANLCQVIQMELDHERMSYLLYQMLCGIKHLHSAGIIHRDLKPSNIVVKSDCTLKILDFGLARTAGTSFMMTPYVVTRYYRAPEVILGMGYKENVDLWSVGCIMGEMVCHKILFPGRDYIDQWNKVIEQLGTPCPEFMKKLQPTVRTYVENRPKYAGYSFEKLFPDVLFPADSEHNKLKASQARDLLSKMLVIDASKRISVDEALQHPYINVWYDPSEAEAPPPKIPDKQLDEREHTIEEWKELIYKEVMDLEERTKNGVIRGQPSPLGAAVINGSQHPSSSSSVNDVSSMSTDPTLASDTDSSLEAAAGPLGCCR

[13] = molecular target: Cyclin-dependent kinase 5 (Homo sapiens, UniProt Q00535); type: functional;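 further: CDK5 measured as one member of a kinase profiling panel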
Chain of Cyclin-dependent kinase 5 (Q00535 whole entry): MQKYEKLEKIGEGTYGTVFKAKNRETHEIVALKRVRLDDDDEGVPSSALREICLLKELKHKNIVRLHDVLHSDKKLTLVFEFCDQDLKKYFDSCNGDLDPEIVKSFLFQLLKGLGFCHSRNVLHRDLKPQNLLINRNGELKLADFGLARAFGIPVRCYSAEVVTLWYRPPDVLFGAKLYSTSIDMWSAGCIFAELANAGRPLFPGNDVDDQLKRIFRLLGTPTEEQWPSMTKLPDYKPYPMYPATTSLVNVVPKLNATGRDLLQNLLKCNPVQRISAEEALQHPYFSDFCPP

[14] = molecular target: Mitogen-activated protein kinase 13 (Homo sapiens, UniProt O15264); type: functional
Chain of Mitogen-activated protein kinase 13 (O15264 whole entry): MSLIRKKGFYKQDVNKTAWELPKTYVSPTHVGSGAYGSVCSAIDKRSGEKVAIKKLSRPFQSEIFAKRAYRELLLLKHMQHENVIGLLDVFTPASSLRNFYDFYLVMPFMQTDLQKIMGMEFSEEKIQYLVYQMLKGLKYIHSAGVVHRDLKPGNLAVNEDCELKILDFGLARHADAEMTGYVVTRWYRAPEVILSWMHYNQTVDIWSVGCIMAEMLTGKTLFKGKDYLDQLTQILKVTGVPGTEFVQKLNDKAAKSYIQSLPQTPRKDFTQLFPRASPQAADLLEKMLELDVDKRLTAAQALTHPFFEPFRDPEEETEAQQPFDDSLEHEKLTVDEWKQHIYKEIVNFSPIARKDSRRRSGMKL

[15] = molecular target: Glycogen synthase kinase-3 beta (Homo sapiens, UniProt P49841); type: functional;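 further: value comes from a broad kinome profiling panel, with GSK3B as the panel member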
Chain of Glycogen synthase kinase-3 beta (P49841 whole entry): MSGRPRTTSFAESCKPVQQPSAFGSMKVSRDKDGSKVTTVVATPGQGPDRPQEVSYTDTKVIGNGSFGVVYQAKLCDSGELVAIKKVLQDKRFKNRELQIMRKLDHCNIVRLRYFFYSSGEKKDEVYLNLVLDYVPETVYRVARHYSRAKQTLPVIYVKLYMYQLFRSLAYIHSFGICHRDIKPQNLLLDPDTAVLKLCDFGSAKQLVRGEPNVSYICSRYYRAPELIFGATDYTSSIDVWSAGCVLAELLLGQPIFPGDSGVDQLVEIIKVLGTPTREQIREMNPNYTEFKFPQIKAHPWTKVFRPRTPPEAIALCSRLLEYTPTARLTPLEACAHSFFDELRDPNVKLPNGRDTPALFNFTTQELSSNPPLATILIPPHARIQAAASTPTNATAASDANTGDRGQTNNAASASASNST

[16] = tested on: BJ; experiment: cells; type: functional, cell-based; settings: Homo sapiens
[17] = tested on: BJ; experiment: cytotoxicity toward BJ-TERT-LT-ST fibroblasts, dose response, cell-based, RAS-independent, luminescence (AID 1935); type: functional; settings: Homo sapiens;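 further: BJ fibroblasts immortalized with TERT plus LT and ST oncogenes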
[18] = molecular target: T1, CAAX prenyl protease 2 (Saccharomyces cerevisiae S288c, UniProt Q03530); type: biochemical
T1 sequence (Q03530 whole entry): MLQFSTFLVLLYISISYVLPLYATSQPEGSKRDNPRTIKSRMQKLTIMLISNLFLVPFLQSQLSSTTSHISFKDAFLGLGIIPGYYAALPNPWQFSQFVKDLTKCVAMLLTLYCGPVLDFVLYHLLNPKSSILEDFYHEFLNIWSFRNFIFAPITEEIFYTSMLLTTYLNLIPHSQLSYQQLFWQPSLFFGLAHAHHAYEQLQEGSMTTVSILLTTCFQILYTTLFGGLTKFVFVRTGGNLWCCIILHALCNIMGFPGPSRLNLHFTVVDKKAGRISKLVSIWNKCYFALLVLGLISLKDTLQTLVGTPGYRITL

[19] = molecular target: T2, Rac GTPase-activating protein 1 (Homo sapiens, UniProt Q9H0H5); experiment: MgcRacGAP GTPase-activating activity inhibitors, confirmation, biochemical, ADP Hunter fluorescence, primary and confirmatory (AID 624330); type: functional
T2 sequence (Q9H0H5 whole entry): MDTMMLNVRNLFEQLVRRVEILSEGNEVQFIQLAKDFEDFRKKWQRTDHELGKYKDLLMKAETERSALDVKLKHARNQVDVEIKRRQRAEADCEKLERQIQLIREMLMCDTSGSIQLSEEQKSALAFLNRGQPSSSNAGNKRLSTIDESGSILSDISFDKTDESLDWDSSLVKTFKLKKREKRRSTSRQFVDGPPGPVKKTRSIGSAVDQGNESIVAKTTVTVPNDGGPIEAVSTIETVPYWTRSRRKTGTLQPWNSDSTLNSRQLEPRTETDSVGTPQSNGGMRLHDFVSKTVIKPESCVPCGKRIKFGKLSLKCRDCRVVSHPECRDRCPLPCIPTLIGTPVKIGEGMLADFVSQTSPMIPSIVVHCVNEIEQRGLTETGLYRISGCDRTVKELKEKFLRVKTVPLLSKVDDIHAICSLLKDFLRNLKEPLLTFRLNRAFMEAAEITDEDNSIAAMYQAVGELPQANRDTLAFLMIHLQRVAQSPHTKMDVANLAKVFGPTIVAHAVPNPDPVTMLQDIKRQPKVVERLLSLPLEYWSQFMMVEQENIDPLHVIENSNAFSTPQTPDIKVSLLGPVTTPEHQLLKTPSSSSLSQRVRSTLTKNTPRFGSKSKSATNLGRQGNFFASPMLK

Chain of RNA-editing ligase 1, mitochondrial (P86926 whole entry): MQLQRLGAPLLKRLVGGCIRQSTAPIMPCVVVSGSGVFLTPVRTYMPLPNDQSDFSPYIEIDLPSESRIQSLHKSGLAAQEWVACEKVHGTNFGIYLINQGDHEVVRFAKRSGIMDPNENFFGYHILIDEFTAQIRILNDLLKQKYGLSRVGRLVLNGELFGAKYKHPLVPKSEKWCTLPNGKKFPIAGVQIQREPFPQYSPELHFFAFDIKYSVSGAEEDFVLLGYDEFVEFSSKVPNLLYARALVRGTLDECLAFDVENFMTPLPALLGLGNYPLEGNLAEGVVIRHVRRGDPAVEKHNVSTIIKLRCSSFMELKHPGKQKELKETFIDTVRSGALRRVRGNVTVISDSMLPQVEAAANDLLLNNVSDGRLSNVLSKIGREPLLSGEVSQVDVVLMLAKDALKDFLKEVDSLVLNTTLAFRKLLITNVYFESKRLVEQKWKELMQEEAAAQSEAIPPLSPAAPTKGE

SMILES: CCC(C)NC(=O)c1c(N)n(CCCOC)c2nc3ccccc3nc12 (centres undefined)
- IC50 [1]: 15.1 µM (inactive)

- Ki [2]: > 7.94 µM (inactive)
- Ki [3]: 0.631 µM (active)
- Ki [4]: > 3.98 µM (inactive)
- Ki [5]: > 3.98 µM (inactive)
- Ki [6]: > 7.94 µM (inactive)
- Ki [7]: > 3.16 µM (inactive)
- Ki [8]: > 5.01 µM (inactive)
- Ki [9]: 3.16 µM (active)
- Ki [10]: > 6.31 µM (inactive)
- Ki [11]: > 1.58 µM (inactive)
- Ki [12]: > 3.16 µM (inactive)
- Ki [13]: 2 µM (active)
- Ki [14]: > 7.94 µM (inactive)
- Ki [15]: > 6.31 µM (inactive)
SMILES: CC(=NNC(=N)N)c1cc(NC(=O)NCCCCCCNC(=O)Nc2cc(C(C)=NNC(=N)N)cc(C(C)=NNC(=N)N)c2)cc(C(C)=NNC(=N)N)c1

SMILES: Cc1cc(N)c2cc(NC(=O)/C=C/c3ccccc3Cl)ccc2n1
- EC50 [16]: 4.79 µM (inconclusive)
- EC50 [17]: 2.79 µM (inconclusive)
- AC50 [18]: 6.78 µM (active)
- IC50 [19]: 23.7 µM (active)
